The values that follow come from patent US20160310477A1, “CANCER TREATMENTS USING COMBINATIONS OF MEK TYPE 1 AND ERK INHIBITORS” (BIOMED VALLEY DISCOVERIES, INC., priority 2013, published 2016).

SMILES strings stand for the structures.

The subject of one assay is ERK. The following applies: Morris et al., 2013; cited from earlier work.
The test system of assay [1] is MAPK signaling in HCT116 cells. Put plainly: Western blot of MAPK signaling markers. Format: cell-based, human. The following applies: HCT116, 4 hours, micromolar concentrations. How it is done: For Western blot studies, HCT116 cells (5×10^6) were seeded into 10 cm dishes in McCoy's 5A plus 10% FBS. […] Cells were allowed to adhere overnight prior to addition of the indicated amount of test compound (BVD-523) or vehicle control. Cells were treated for either 4 or 24 hours before isolation of whole-cell protein lysates, as specified below. Cells were harvested by trypsinisation, pelleted and snap frozen. Lysates were prepared with RIPA (Radio-Immunoprecipitation Assay) buffer, clarified by centrifugation and quantitated by bicinchoninic acid assay (BCA) assay. 20-50 μg of protein was resolved by SDS-PAGE electrophoresis, blotted onto PVDF membrane and probed using the antibodies detailed in Table 5 (for the 4-hour treatment) and Table 6 (for the 24-hour treatment) below. [table]
For orientation: In western blotting, separated proteins are transferred to a membrane and probed.

Assay [2] concerns MAPK signaling in A375 cells. Put plainly: Western blot of MAPK signaling, cell cycle and apoptosis markers. Format: cell-based, human.

As to `O=C(Nc1ccc2[nH]nc(-c3ccncc3)c2c1)[C@@H]1CCN(CC(=O)N2CCN(c3ccc(-c4ncccn4)cc3)CC2)C1` [SCH772984], in the assay with ERK, the “autophosphorylation of ERK” value is given as “inhibits autophosphorylation of ERK”.
With `CC(C)Nc1cc(-c2c[nH]c(C(=O)N[C@H](CO)c3cccc(Cl)c3)c2)c(Cl)cn1` [BVD-523], the “phosphorylation of ERK-dependent residues (T359/S363) in RSK 1 and 2 proteins” value in assay [1] is “reduced”; in assay [2] (A375, 4 hours, micromolar concentrations) it was “reduced”. For the same compound, the cyclin-D1 level entry in assay [2] (24 hours of treatment) is “greatly reduced”. The Bim-EL level entry in assay [2] (A375, prolonged treatment) was “increased”. Further, the “apoptosis / PARP cleavage” value in assay [2] (A375, prolonged treatment) is “increased apoptosis was not observed”. Also, in assay [2] (BRAF mutant cell line, 24 hours of treatment), the “MAPK feedback phosphatase DUSP6 level” value is on record as “greatly reduced”. Besides, the “autophosphorylation of ERK” value in assay [2] (FIG. 1 Western blot) is “allows for the autophosphorylation of ERK”. Also, in assay [2] (RAF and RAS mutant cancer cells, Western blot, 4 or 24 h), the “concentrations required to induce changes in substrate phosphorylation and effector targets of ERK” value is “low micromolar range”.
